Key:
S. typhimurium TA100 = test: Dose range finding colony forming assay, strain TA100 with metabolic activation; assay type: cell-based
Experimental: A series of dose range finding assays were performed with five bacterial strains, S. typhimurium TA97a, TA98, TA100, TA1535, and E. coli WP2 uvrA pKM101, with and without metabolic activation at three plates per dose. The following doses, along with positive and negative controls, were tested: 5000, 2500, 1250, 500, 250, 125, 50, 20, 10, 5, 2, 1, and 0.2 μg/plate. The plates were evaluated for toxicity (a decrease in plate counts with increasing dose and/or a visible thinning of the background lawn) and for precipitation of the test article. Metabolic activation was included in some samples by adding phenobarbital/benzoflavone-induced rat liver S9 fractions with cofactors (S9 mix). Prior to use, freshly thawed aliquots of rat liver S9 were mixed with a sterile cofactor mix. The S9 mix contains a 10% liver S9 concentration and was refrigerated or stored on ice until used. When testing with metabolic activation, the S9 mix was used in the assay tube in place of phosphate buffer.
Dosing formulations were prepared to deliver all doses in a constant volume of 0.1 mL. The highest dose was prepared from test article weighed to the nearest 0.1 mg and the remaining formulations were prepared as serial dilutions from the high dose stock formulation. Using a permanent marking pen or computer printed labels, assay plates were labeled with the project and study numbers and the date. Assay plates and tubes were labeled with a unique identifier, which was used to match the assay tubes with the properly identified minimal glucose agar plate.
The pre-incubation method was used to perform the assay. The assay mix consisted of 0.1 mL of the test article formulation or control article, 0.5 mL S9 mix or phosphate buffer, and 0.1 mL of bacterial culture. Assay tubes were incubated at 37±1° C. with gentle agitation for 20±1 minutes, then 2.0-2.5 mL top agar was added to the assay mix and the top agar/assay mix poured onto appropriately labeled minimal glucose agar plates. Once the top agar hardened, the plates were inverted and incubated at 37±1° C. for 48±2 hours. Plates were counted with the Sorcerer (v. 2.2)/Ames Study Manager (v. 1.2.4) system from Perceptive Instruments (Suffolk, UK). With this system, plate counts are automatically transferred from the plate imager (Sorcerer) to a Study Manager spreadsheet, and the data are stored in a secure manner on an Oracle database. Some plates were hand counted, e.g., if sample precipitate interferes with automatic counting or toxicity results in the formation of microcolonies, in which case, counts for these plates were entered into the spreadsheet manually. Plates were scored also with the extent of colonization by a post fix code.

[1] = system: Methicillin Resistant Staphylococcus aureus (MRSA USA 300); test: Colony forming assay, spread plate, MRSA USA 300; assay type: cell-based; details: for Reduction of MRSA USA 300 counts: 24 h
Experimental: A fresh culture of pathogenic isolate was used in these examples. The bacterial strains used were Methicillin Resistant Staphylococcus aureus (MRSA USA 300), Pseudomonas aeruginosa ATCC 27312, and Candida albicans ATCC 64550.
FIG. 5 illustrates the spread plate method used in these examples. In sum, agar plates were made, bacteria were diluted to 10^6 or 10^8 CFU/mL, bacteria and drug were mixed together and then plated. Glass spreading beads were used because they give a better bacterial spread. Plates were incubated for 24 hrs then the colonies that formed were counted.
Proliferating cultures of Methicillin Resistant Staphylococcus aureus (MRSA, USA 300) were used in a colony forming assay. Freeze-dried bacteria culture of MRSA was recovered by swabbing a 3-cm diameter growth area and resuspending it to obtain a final inoculum suspension of approximately 10^8 CFU/mL. The concentration was confirmed using historical optical density measurements. The total compound BM3103 was suspended in a 70% v/v alcohol gel formulation (Formulation A) before the introduction of bacteria, with the vehicle consisting of solely the 70% v/v alcohol gel. MRSA at 10^8 CFU/mL was challenged with equal parts of a high, medium, and low dose of BM3103, vehicle formulation, positive control (Tobramycin, 600 μg/mL), or untreated control (phosphate buffered saline). The inoculum was plated on Tryptic Soy Broth plates at 37° C. for 24 h. Plates were photographed and counted. The treatment for each experiment was done in triplicate, and the experiment was repeated three times, for a total of 9 plates per group.
Colony counts for each treatment were tabulated and the Log of the colony forming units/mL (Log CFU/mL) was determined. The mean and standard deviation of the Log CFU/mL were calculated for each treatment. A one-way analysis of variance was performed at a 95% confidence interval.

MRSA USA 400 biofilm = test: Biofilm inhibition assay (prevention of biofilm formation); assay type: cell-based, Staphylococcus aureus; details: overnight 37° C.
Experimental: Proliferating cultures of Methicillin Resistant Staphylococcus aureus (MRSA, USA 400) were used in a colony forming assay. Frozen stock cultures of MRSA USA 400 were thawed and grown overnight in tryptic soy broth (TSB) with shaking at 37° C. The overnight culture (0.5-1.0 mL) was added to 100 mL TSB and grown at 37° C. with shaking and monitored for an optical density of 0.55-0.60 in order to obtain a final inoculum suspension of approximately 10^8 CFU/mL.
For the biofilm inhibition assay, 100 μL of MRSA USA 400 inoculum (10^8 CFU/mL) was plated with 100 μL of each BM3103 drug concentration in a 96 well plate. A 0.1 M stock of BM3103 was dissolved in ethanol and serially diluted in TSB across a 96 well plate to obtain final concentrations of 1 mM to 0.002 mM. The drug treated inoculum grew overnight at 37° C. without shaking.

## COc1ccc(C#Cc2ccc(O)cc2)cc1 [BM3103, 4-hydroxy-4′-methoxytolan]
S. typhimurium TA100; 0.2 μg/plate
  Colony forming units/plate: 78 colony forming units/plate
  Individual colony counts: 78
S. typhimurium TA100; 1 μg/plate
  Colony forming units/plate: 56.0 colony forming units/plate
  Individual colony counts: 56
S. typhimurium TA100; 2 μg/plate
  Colony forming units/plate: 36.0 colony forming units/plate
  Individual colony counts: 360
S. typhimurium TA100; 5 μg/plate
  Colony forming units/plate: 74.0 colony forming units/plate
  Individual colony counts: 74
S. typhimurium TA100; 10 μg/plate
  Colony forming units/plate: 38.0 colony forming units/plate
  Individual colony counts: 38
  Plate postfix code (individual colony counts): S T
S. typhimurium TA100; 20 μg/plate
  Colony forming units/plate: 54.0 colony forming units/plate
  Individual colony counts: 54
S. typhimurium TA100; 50 μg/plate
  Colony forming units/plate: 0.0 colony forming units/plate
  Individual colony counts: 0
S. typhimurium TA100; 125 μg/plate
  Colony forming units/plate: 0.0 colony forming units/plate
  Individual colony counts: 0
S. typhimurium TA100; 250 μg/plate
  Colony forming units/plate: 0.0 colony forming units/plate
  Individual colony counts: 0
S. typhimurium TA100; 500 μg/plate
  Colony forming units/plate: 0.0 colony forming units/plate
  Individual colony counts: 0
S. typhimurium TA100; 1250 μg/plate
  Colony forming units/plate: 0.0 colony forming units/plate
  Individual colony counts: 0
  Plate postfix code (individual colony counts): A P
S. typhimurium TA100; 2500 μg/plate
  Colony forming units/plate: 0.0 colony forming units/plate
  Individual colony counts: 0
  Plate postfix code (individual colony counts): A P
S. typhimurium TA100; 5000 μg/plate
  Colony forming units/plate: 0.0 colony forming units/plate
  Individual colony counts: 0
  Plate postfix code (individual colony counts): A P
[1]; all three doses (0.05, 0.25, 0.5% w/v) vs Tobramycin 600 μg/mL
  Reduction in MRSA USA 300 counts compared to the positive control: significantly greater reduction
[1]; high dose 0.5% w/v, 22 mM, alcohol gel
  Reduction of MRSA USA 300 counts: approximately 8 fold
[1]; low dose 0.05% w/v, 2 mM, 70% v/v alcohol gel (Formulation A), compared to vehicle and untreated controls
  Reduction of MRSA USA 300 counts: over 6 fold
[1]; medium dose 0.25% w/v, 11 mM, alcohol gel, compared to vehicle and untreated control
  Reduction of MRSA USA 300 counts: 7 fold
MRSA USA 400 biofilm; 0.008 mM, FIG. 12B
  Biofilm formation of MRSA USA 400: Mild biofilm formation
MRSA USA 400 biofilm; 0.625 mM, FIG. 12A
  Biofilm formation of MRSA USA 400: inhibits biofilm formation of MRSA USA 400 completely
MRSA USA 400 biofilm; about 0.002 mM, FIGS. 12C-12D
  Biofilm formation of MRSA USA 400: no effect on biofilm formation
MRSA USA 400 biofilm
  Concentrations that completely inhibit biofilm formation: above 0.0625 mM

Reference: patent publication US12678412B2, “Substituted tolans for the modulation of microbial colonization” (BioMendics, LLC, priority 2017, dated 2026)
